# Values joined by “and” are separate entries in the source; they are usually repeats but may differ in a detail not shown here. Equal entries are not always repeated.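 Assay format: 96-well plates, 48-hour exposure. The concentration for 50% growth inhibition is given as GI50. Definition used: TGI = concentration required for complete inhibition of growth.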
# Assays:
# Test in all cases: NCI tumour cell line growth inhibition, 48 h
# EKVX NSCLC = test system: EKVX NSCLC
# HOP-62 NSCLC = test system: HOP-62 NSCLC
# HOP-92 NSCLC = test system: HOP-92 NSCLC
# KM12 colon = test system: KM12 colon
# SF-295 CNS = test system: SF-295 CNS
# RPMI-8226 leukemia = test system: RPMI-8226 leukemia
# MDA-MB-435 = test system: MDA-MB-435
# OVCAR-4 ovarian = test system: OVCAR-4 ovarian
# LOX IMVI melanoma = test system: LOX IMVI melanoma
# MCF7 breast = test system: MCF7 breast
# OVCAR-5 ovarian = test system: OVCAR-5 ovarian
# SF-268 CNS = test system: SF-268 CNS
# OVCAR-8 ovarian = test system: OVCAR-8 ovarian
# HT29 colon = test system: HT29 colon
# HCT-15 colon = test system: HCT-15 colon
# NCI-H226 lung = test system: NCI-H226 lung
# SNB-19 CNS = test system: SNB-19 CNS
# SN12C renal = test system: SN12C renal
# ACHN renal = test system: ACHN renal
# IGROV1 ovarian = test system: IGROV1 ovarian
# A549 NSCLC = test system: A549 NSCLC
# CCRF-CEM leukemia = test system: CCRF-CEM leukemia
# TK-10 renal = test system: TK-10 renal
# RXF 393 renal = test system: RXF 393 renal
# SK-MEL-2 melanoma = test system: SK-MEL-2 melanoma
# UACC-62 melanoma = test system: UACC-62 melanoma
# PC-3 prostate = test system: PC-3 prostate
# MALME-3M melanoma = test system: MALME-3M melanoma
# DU-145 prostate = test system: DU-145 prostate
# UO-31 renal = test system: UO-31 renal
# OVCAR-3 ovarian = test system: OVCAR-3 ovarian
# HCT-116 colon = test system: HCT-116 colon
# NCI-H460 lung = test system: NCI-H460 lung
# 786-0 renal = test system: 786-0 renal
# MOLT-4 leukemia = test system: MOLT-4 leukemia
# SR leukemia = test system: SR leukemia
# HS 578T breast = test system: HS 578T breast
# NCI-H522 lung = test system: NCI-H522 lung
# A498 renal = test system: A498 renal
# NCI/ADR-RES ovarian = test system: NCI/ADR-RES ovarian
# MDA-MB-231 breast = test system: MDA-MB-231 breast
# UACC-257 melanoma = test system: UACC-257 melanoma
# K-562 leukemia = test system: K-562 leukemia
# CAKI-1 renal = test system: CAKI-1 renal
# HL-60(TB) leukemia = test system: HL-60(TB) leukemia
# SK-MEL-5 melanoma = test system: SK-MEL-5 melanoma
# M14 melanoma = test system: M14 melanoma
# SK-OV-3 ovarian = test system: SK-OV-3 ovarian
# SK-MEL-28 melanoma = test system: SK-MEL-28 melanoma
# COLO 205 colon = test system: COLO 205 colon
# T-47D breast = test system: T-47D breast
# U251 CNS = test system: U251 CNS
# BT-549 breast = test system: BT-549 breast
# HCC-2998 colon = test system: HCC-2998 colon
# SF-539 CNS = test system: SF-539 CNS
# SW-620 colon = test system: SW-620 colon
# SNB-75 CNS = test system: SNB-75 CNS
# NCI-H23 lung = test system: NCI-H23 lung
compound,measurement,setting,value
CS(=O)(=O)c1nccc(-c2c(-c3ccc(F)c(OCCc4ccccc4)c3)nc3sccn23)n1,GI50,EKVX NSCLC,15.8 µM
same,TGI,EKVX NSCLC,29.2 µM
same,GI50,HOP-62 NSCLC,17 µM
same,TGI,HOP-62 NSCLC,32.9 µM
same,GI50,HOP-92 NSCLC,8.62 µM
same,TGI,HOP-92 NSCLC,22.1 µM
same,GI50,KM12 colon,17.3 µM
same,TGI,KM12 colon,32.6 µM
same,GI50,SF-295 CNS,18.5 µM
same,TGI,SF-295 CNS,33.3 µM
same,GI50,RPMI-8226 leukemia,20.5 µM
same,TGI,RPMI-8226 leukemia,55 µM
same,GI50,MDA-MB-435,16.7 µM
same,TGI,MDA-MB-435,31 µM
same,GI50,OVCAR-4 ovarian,15.4 µM
same,TGI,OVCAR-4 ovarian,29 µM
same,GI50,LOX IMVI melanoma,14.9 µM
same,TGI,LOX IMVI melanoma,31.8 µM
same,GI50,MCF7 breast,4.29 µM
same,TGI,MCF7 breast,18.7 µM
same,GI50,OVCAR-5 ovarian,19.2 µM
same,TGI,OVCAR-5 ovarian,44.8 µM
same,GI50,SF-268 CNS,16.4 µM
same,TGI,SF-268 CNS,33.1 µM
same,GI50,OVCAR-8 ovarian,16.7 µM
same,TGI,OVCAR-8 ovarian,33.2 µM
same,GI50,HT29 colon,16.7 µM
same,TGI,HT29 colon,33.8 µM
same,GI50,HCT-15 colon,16.2 µM
same,TGI,HCT-15 colon,32.2 µM
same,GI50,NCI-H226 lung,14.1 µM
same,TGI,NCI-H226 lung,27.8 µM
same,GI50,SNB-19 CNS,16.2 µM
same,TGI,SNB-19 CNS,31.6 µM
same,GI50,SN12C renal,15.9 µM
same,TGI,SN12C renal,34.4 µM
same,GI50,ACHN renal,15.4 µM
same,TGI,ACHN renal,28.7 µM
same,GI50,IGROV1 ovarian,15.4 µM
same,TGI,IGROV1 ovarian,33.5 µM
same,GI50,A549 NSCLC,17.1 µM
same,TGI,A549 NSCLC,33.5 µM
same,GI50,CCRF-CEM leukemia,19.1 µM
same,TGI,CCRF-CEM leukemia,45.6 µM
same,GI50,TK-10 renal,15.4 µM
same,TGI,TK-10 renal,29.7 µM
same,GI50,RXF 393 renal,14.4 µM
same,TGI,RXF 393 renal,27.6 µM
same,GI50,SK-MEL-2 melanoma,15.8 µM
same,TGI,SK-MEL-2 melanoma,30.5 µM
same,GI50,UACC-62 melanoma,17.4 µM
same,TGI,UACC-62 melanoma,36.7 µM
same,GI50,PC-3 prostate,17.1 µM
same,TGI,PC-3 prostate,35.6 µM
same,GI50,MALME-3M melanoma,18.2 µM
same,TGI,MALME-3M melanoma,33.1 µM
same,GI50,DU-145 prostate,4.3 µM
same,TGI,DU-145 prostate,14.8 µM
same,GI50,UO-31 renal,14.1 µM
same,TGI,UO-31 renal,27.1 µM
same,GI50,OVCAR-3 ovarian,15.4 µM
same,TGI,OVCAR-3 ovarian,29 µM
same,GI50,HCT-116 colon,16.3 µM
same,TGI,HCT-116 colon,29.8 µM
same,GI50,NCI-H460 lung,14 µM
same,TGI,NCI-H460 lung,30 µM
same,GI50,786-0 renal,16.5 µM
same,TGI,786-0 renal,30.8 µM
same,GI50,MOLT-4 leukemia,17.5 µM
same,TGI,MOLT-4 leukemia,39.7 µM
same,GI50,SR leukemia,15.6 µM
same,TGI,SR leukemia,40.6 µM
same,GI50,HS 578T breast,17.2 µM
same,TGI,HS 578T breast,42.9 µM
same,GI50,NCI-H522 lung,13.5 µM
same,TGI,NCI-H522 lung,30.7 µM
same,GI50,A498 renal,11.8 µM
same,TGI,A498 renal,24.3 µM
same,GI50,NCI/ADR-RES ovarian,16.8 µM
same,TGI,NCI/ADR-RES ovarian,34.3 µM
same,GI50,MDA-MB-231 breast,17.6 µM
same,TGI,MDA-MB-231 breast,34.4 µM
same,GI50,UACC-257 melanoma,15 µM
same,TGI,UACC-257 melanoma,29.6 µM
same,GI50,K-562 leukemia,20.4 µM
same,TGI,K-562 leukemia,68.3 µM
same,GI50,CAKI-1 renal,15.2 µM
same,TGI,CAKI-1 renal,28.5 µM
same,GI50,HL-60(TB) leukemia,5.17 µM
same,TGI,HL-60(TB) leukemia,22.2 µM
same,GI50,SK-MEL-5 melanoma,17.2 µM
same,TGI,SK-MEL-5 melanoma,31.8 µM
same,GI50,M14 melanoma,17.7 µM
same,TGI,M14 melanoma,32.1 µM
same,GI50,SK-OV-3 ovarian,19.9 µM
same,TGI,SK-OV-3 ovarian,45.2 µM
same,GI50,SK-MEL-28 melanoma,15.2 µM
same,TGI,SK-MEL-28 melanoma,28.9 µM
same,GI50,COLO 205 colon,19.1 µM
same,TGI,COLO 205 colon,37.7 µM
same,GI50,T-47D breast,10.3 µM
same,TGI,T-47D breast,25.7 µM
same,GI50,U251 CNS,16.6 µM
same,TGI,U251 CNS,30.2 µM
same,GI50,BT-549 breast,15.6 µM
same,TGI,BT-549 breast,30.1 µM
same,GI50,HCC-2998 colon,15.4 µM
same,TGI,HCC-2998 colon,30.2 µM
same,GI50,SF-539 CNS,16.3 µM
same,TGI,SF-539 CNS,30.3 µM
same,GI50,SW-620 colon,18.4 µM
same,TGI,SW-620 colon,35.8 µM
same,GI50,SNB-75 CNS,11.8 µM
same,TGI,SNB-75 CNS,24 µM
COc1cc(C)c(-c2ccc(OC)c(=O)cc2C)c(OC)c1OC,TGI,EKVX NSCLC,> 100 µM
same,TGI,HOP-62 NSCLC,> 100 µM
same,GI50,HOP-92 NSCLC,3.53 µM and 22.4 µM
same,TGI,HOP-92 NSCLC,> 100 µM
same,TGI,KM12 colon,> 100 µM
same,TGI,SF-295 CNS,> 100 µM
same,TGI,RPMI-8226 leukemia,> 100 µM
same,GI50,OVCAR-4 ovarian,44.2 µM and > 100 µM
same,TGI,OVCAR-4 ovarian,> 100 µM
same,TGI,LOX IMVI melanoma,> 100 µM
same,TGI,MCF7 breast,> 100 µM
same,TGI,OVCAR-5 ovarian,> 100 µM
same,TGI,SF-268 CNS,> 100 µM
same,TGI,OVCAR-8 ovarian,> 100 µM
same,TGI,HCT-15 colon,> 100 µM
same,TGI,NCI-H226 lung,> 100 µM
same,TGI,SNB-19 CNS,> 100 µM
same,TGI,SN12C renal,> 100 µM
same,TGI,ACHN renal,> 100 µM
same,TGI,IGROV1 ovarian,> 100 µM
same,TGI,A549 NSCLC,> 100 µM
same,TGI,CCRF-CEM leukemia,> 100 µM
same,GI50,TK-10 renal,66.3 µM and > 100 µM
same,TGI,TK-10 renal,> 100 µM
same,TGI,RXF 393 renal,> 100 µM
same,TGI,UACC-62 melanoma,> 100 µM
same,TGI,PC-3 prostate,> 100 µM
same,GI50,MALME-3M melanoma,> 100 µM
same,TGI,MALME-3M melanoma,> 100 µM
same,TGI,DU-145 prostate,> 100 µM
same,TGI,UO-31 renal,> 100 µM
same,TGI,HCT-116 colon,> 100 µM
same,TGI,NCI-H460 lung,> 100 µM
same,TGI,786-0 renal,> 100 µM
same,TGI,MOLT-4 leukemia,> 100 µM
same,TGI,SR leukemia,> 100 µM
same,GI50,HS 578T breast,> 100 µM
same,TGI,HS 578T breast,> 100 µM
same,GI50,NCI/ADR-RES ovarian,> 100 µM
same,TGI,NCI/ADR-RES ovarian,> 100 µM
same,TGI,MDA-MB-231 breast,> 100 µM
same,TGI,UACC-257 melanoma,> 100 µM
same,TGI,K-562 leukemia,> 100 µM
same,TGI,CAKI-1 renal,> 100 µM
same,TGI,NCI-H23 lung,> 100 µM
same,TGI,SK-MEL-5 melanoma,38.3 µM and > 100 µM
same,TGI,M14 melanoma,> 100 µM
same,TGI,SK-OV-3 ovarian,> 100 µM
same,GI50,SK-MEL-28 melanoma,> 100 µM
same,TGI,SK-MEL-28 melanoma,> 100 µM
same,TGI,T-47D breast,> 100 µM
same,TGI,U251 CNS,> 100 µM
same,TGI,HCC-2998 colon,> 100 µM
same,TGI,SF-539 CNS,> 100 µM
same,TGI,SW-620 colon,> 100 µM
same,GI50,SNB-75 CNS,> 100 µM
same,TGI,SNB-75 CNS,> 100 µM

# Reference: PubChem BioAssay (NCI)
